Results: patent publication US20230263757A1, “DISINFECTING WIPE KIT FOR CENTRAL VENOUS ACCESS DEVICES” (SterileCare Inc., priority 2022, published 2023)

How the values were obtained:
MRSA ON184 [1] = experiment: MIC, micro broth dilution; assay type: cell-based, S. aureus; settings: alone
Protocol: (§1) An assay was made using a minimum inhibitory concentration (MIC) and minimum bactericidal concentration (MBC) and minimum fungicidal concentration (MFC) determination. The MIC was determined by the micro broth dilution method in 96-well plates. Serial two-fold dilutions of tetrasodium EDTA (from 2% to 0.015%), ethanol (from 50% to 0.1%) and chlorhexidine HCl (from 100 μg/mL to 0.025 μg/mL) were prepared in MH broth with a final volume of 90 μL per well. A 10 μL containing 1×10^5 bacterial cells or 2×10^3 fungal cells were added to each well. The inoculated plates were covered with a lid, sealed with Parafilm, and incubated for 24 h at 37° C. with slight rocking on a tilting platform shaker. After incubation, the optical density at 600 nm (OD 600) of the cultures in each well was measured using an xMark™ Microplate Absorbance Spectrophotometer (Bio-Rad). […] MBCs and MFCs were determined by transferring 100 μL from each well with no apparent growth onto appropriate agar plates, followed by incubation for 24 h at 37° C.

S. epidermidis SK9 = experiment: Checkerboard titration, FICI; assay type: cell-based, Staphylococcus epidermidis; settings: EDTA + ethanol
Protocol: (§2) A fourth composition and solution included tetrasodium EDTA with ethanol or chlorhexidine HCl. This fourth composition and solution were created using checkerboard titration methods using micro broth dilution in 96-well microtiter plates. The concentrations of antimicrobials used were based on previously determined MIC values. Briefly, 200 μL, of two-fold dilutions of tetrasodium EDTA and ethanol or chlorhexidine HCl were prepared in MH or MH II broth with standardized cell suspension. […] Microtiter plates were incubated at 37° C. for 24 h, and the results were analyzed. Each test was performed in duplicate and included a growth control without adding any antimicrobials.

Candida albicans SK4b [2] = experiment: Checkerboard titration, FICI; assay type: cell-based; settings: EDTA + ethanol
Protocol: as §2

Escherichia coli ON29 [3] = experiment: Checkerboard titration, FICI; assay type: cell-based; settings: EDTA + ethanol
Protocol: as §2

Proteus mirabilis ON153 [4] = experiment: Checkerboard titration, FICI; assay type: cell-based; settings: EDTA + ethanol
Protocol: as §2

[5] = tested on: Pseudomonas aeruginosa SK1; experiment: Checkerboard titration, FICI; assay type: cell-based; settings: EDTA + ethanol
Protocol: as §2

Serratia marcescens SK2 [6] = experiment: Checkerboard titration, FICI; assay type: cell-based; settings: EDTA + ethanol
Protocol: as §2

[7] = tested on: Staphylococcus aureus ON89; experiment: Checkerboard titration, FICI; assay type: cell-based; settings: EDTA + ethanol
Protocol: as §2

[8] = tested on: Staphylococcus epidermidis ON170; experiment: Checkerboard titration, FICI; assay type: cell-based; settings: EDTA + ethanol
Protocol: as §2

[9] = tested on: Stenotrophomonas maltophilia ON17; experiment: Checkerboard titration, FICI; assay type: cell-based; settings: EDTA + ethanol
Protocol: as §2

MRSA ON184 [10] = experiment: Checkerboard, FMCI; assay type: cell-based, S. aureus; settings: EDTA + ethanol
Protocol: as §1, §2

Candida albicans SK4b [11] = experiment: Checkerboard, FMCI; assay type: cell-based; settings: EDTA + ethanol
Protocol: as §1, §2

Escherichia coli ON29 [12] = experiment: Checkerboard, FMCI; assay type: cell-based; settings: EDTA + ethanol
Protocol: as §1, §2

Proteus mirabilis ON153 [13] = experiment: Checkerboard, FMCI; assay type: cell-based; settings: EDTA + ethanol
Protocol: as §1, §2

[14] = tested on: Pseudomonas aeruginosa SK1; experiment: Checkerboard, FMCI; assay type: cell-based; settings: EDTA + ethanol
Protocol: as §1, §2

Serratia marcescens SK2 [15] = experiment: Checkerboard, FMCI; assay type: cell-based; settings: EDTA + ethanol
Protocol: as §1, §2

[16] = tested on: Staphylococcus aureus ON89; experiment: Checkerboard, FMCI; assay type: cell-based; settings: EDTA + ethanol
Protocol: as §1, §2

[17] = tested on: Staphylococcus epidermidis ON170; experiment: Checkerboard, FMCI; assay type: cell-based; settings: EDTA + ethanol
Protocol: as §1, §2

[18] = tested on: Stenotrophomonas maltophilia ON17; experiment: Checkerboard, FMCI; assay type: cell-based; settings: EDTA + ethanol
Protocol: as §1, §2

E. coli SK2 = experiment: Checkerboard, FMCI; assay type: cell-based, Escherichia coli; settings: EDTA + ethanol
Protocol: as §1, §2

C. albicans ON47 = experiment: Checkerboard, FMCI; assay type: cell-based, Candida albicans; settings: EDTA + ethanol
Protocol: as §1, §2

MRSA ON184 [19] = experiment: MBEC assay, 48-h biofilm, 24 h exposure; assay type: cell-based, S. aureus
Protocol: A biofilm cultivation cell composition was provided. This fifth composition was created using an MBEC Assay® biofilm inoculator, consisting of a polystyrene lid with 96 downward-protruding pegs and a corresponding base used to grow biofilms. A standardized inoculum was diluted in an appropriate biofilm growth medium to achieve a viable cell count of 1.5×10^6 CFU/mL of bacterial cells or 5×10^5 CFU/mL of fungal cells. Then, 150 μL of this inoculum was transferred into each appropriate well, and the peg lids were inserted into the microtiter plates. The plates were sealed with Parafilm and were incubated at optimum temperature for 48 h with slight rocking for bacteria and shaking at 200 rpm for fungal strains. After incubation, the peg lid was removed from the base and rinsed twice with sterile phosphate-buffered saline (PBS) for 2 min to remove loosely attached non-sessile cells. Before the antimicrobial challenge, the pegs in column 1 (n=8) were considered the biofilm growth control; these pegs were removed from the lids, placed into 200 μL of recovery medium, and analyzed for starting biofilm cell numbers as described below. The rinsed pegs were placed into new 96-well plates containing two-fold dilutions of antimicrobials such as tetrasodium EDTA (4%-0.0125%), ethanol (100%-0.2%), and chlorhexidine HCl (100 μg/mL-0.4 μg/mL) in 200 μL of suitable biofilm growth medium per well and incubated at optimum temperature for 24 h. After the antimicrobial challenge, the pegs were rinsed twice with sterile PBS for 2 min and placed into a new 96-well plate containing 200 μL of recovery medium. The recovery plates were sealed with Parafilm, and biofilm cells were dislodged from the pegs by sonication for 30 min with a Branson 3510 bath sonicator. The biofilm cells in the recovery medium were serially diluted, and a drop dilution assay was performed to enumerate the viable cells. MBEC values were determined as the minimum concentration of antimicrobials that yielded a viable cell count at or lower than the 125 CFU/mL detection limit.

[20] = tested on: Pseudomonas aeruginosa SK1; experiment: FBEC index, checkerboard on biofilms; assay type: cell-based; settings: EDTA + ethanol
Proteus mirabilis ON153 [21] = experiment: FBEC index, checkerboard on biofilms; assay type: cell-based; settings: EDTA + ethanol
Escherichia coli SK2 = experiment: FBEC index, checkerboard on biofilms; assay type: cell-based; settings: EDTA + ethanol

With `CCO` [Ethanol, ethanol] the MIC (MRSA ON184 [1]) was 6.25 % w/v, the concentration in combination (S. epidermidis SK9) was 0.4 % w/v and the concentration in combination (Candida albicans SK4b [2]) was 1.6 % w/v. It also gave a concentration in combination (Escherichia coli ON29 [3]) of 3.125 % w/v, a concentration in combination (Proteus mirabilis ON153 [4]) of 1.6 % w/v and a concentration in combination [5] of 3.125 % w/v. For the same compound, the concentration in combination (Serratia marcescens SK2 [6]) was 3.125 % w/v, the concentration in combination [7] was 0.4 % w/v and the concentration in combination [8] was 0.4 % w/v. For the same compound, the concentration in combination [9] was 0.4 % w/v, the “microbicidal concentration in combination” value (shortened to “microbicidal concentration”) (MRSA ON184 [10]) was 3.125 % w/v and the “microbicidal concentration” value (Candida albicans SK4b [11]) was 3.125 % w/v. For the same compound, the “microbicidal concentration” value (Escherichia coli ON29 [12]) was 6.25 % w/v, the “microbicidal concentration” value (Proteus mirabilis ON153 [13]) was 6.25 % w/v and the “microbicidal concentration” value [14] was 6.25 % w/v. The “microbicidal concentration” value (Serratia marcescens SK2 [15]) was 6.25 % w/v, the “microbicidal concentration” value [16] was 3.125 % w/v and the “microbicidal concentration” value [17] was 1.6 % w/v. The “microbicidal concentration” value [18] was 1.6 % w/v, the “microbicidal concentration” value (E. coli SK2) was 6.25 % w/v and the “microbicidal concentration” value (C. albicans ON47) was 3.125 % w/v. The MBEC (MRSA ON184 [19]) was 12.5 % w/v, the “biofilm eradication concentration in combination (FBEC)” value (from here on “biofilm eradication concentration”) [20] was 3.125 % w/v and the “biofilm eradication concentration” value (Proteus mirabilis ON153 [21]) was 6.25 % w/v. The “biofilm eradication concentration” value (Escherichia coli SK2) was 1.6 % w/v.
